Measured values: ChEMBL document CHEMBL1201862, “PubChem BioAssay data set” (2004)
Calls of active or inactive are those of the source.

How the values were obtained:
[1] = reduction of Shn3 3'UTR-driven luciferase in osteoblasts – cell-based, Clone20 osteoblasts, firefly luciferase, cherry-picked, dose response (AID 624132); assay type: functional;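 further: firefly luciferase luminescence from reporter carrying the Shn3 3'UTR in osteoblasts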
[2] = non-specific 3'UTR reporter inhibition in Clone20-Shn3RL – cell-based, Renilla luciferase, cherry-picked, counter-screen for Shn3 inhibitor project, dose response (AID 624133); assay type: functional
[3] = Shn3 3'UTR reporter signal decrease – cell-based, Clone20 osteoblasts, firefly luciferase, cherry-pick, set 2, Schnurri-3 inhibitor project, dose response (AID 720490); assay type: functional;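 further: actives lower the luminescence signal as inhibitors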
[4] = EF1alpha-driven Renilla reporter with control 3'UTR suppression – Clone20-Shn3RL cells, dual-Glo, cherry-pick, set 2, counter-screen for Shn3 3'UTR targeting project, dose response (AID 720724); assay type: functional, cell-based; details: Dual-Go Shn3RL
[5] = system: HEK293; assay: viability loss in HEK293T cells – cell-based, ATP luminescence, cherry-pick samples, cytotoxicity control, dose response (AID 687005); assay type: functional; details: Homo sapiens;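 further: cells exposed to compound for 48 hours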
[6] = HEK293 Cytotoxicity Assay Measured in Cell-Based System Using Plate Reader - 7071-01_Inhibitor_Dose_CherryPick_Activity_Set2.; assay type: functional
[7] = system: Streptococcus sp. 'group A'; assay: Streptococcus pyogenes SK(-)GAS viability under kanamycin – luminescence, BacTiterGlo, confirmation, counter-screen for streptokinase expression inhibitor project, dose response (AID 1900); assay type: functional, organism-based
[8] = target: T1, Streptokinase A (Streptococcus pyogenes serotype M1, UniProt P10520); assay: viability-normalized secreted streptokinase activity reduction – plasminogen activation absorbance, OD405, dose response (AID 1914); assay type: functional, Streptococcus pyogenes M1 GAS;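 further: secreted streptokinase activity via plasminogen activation per viability signal from cell pellet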
T1 sequence (P10520 whole entry): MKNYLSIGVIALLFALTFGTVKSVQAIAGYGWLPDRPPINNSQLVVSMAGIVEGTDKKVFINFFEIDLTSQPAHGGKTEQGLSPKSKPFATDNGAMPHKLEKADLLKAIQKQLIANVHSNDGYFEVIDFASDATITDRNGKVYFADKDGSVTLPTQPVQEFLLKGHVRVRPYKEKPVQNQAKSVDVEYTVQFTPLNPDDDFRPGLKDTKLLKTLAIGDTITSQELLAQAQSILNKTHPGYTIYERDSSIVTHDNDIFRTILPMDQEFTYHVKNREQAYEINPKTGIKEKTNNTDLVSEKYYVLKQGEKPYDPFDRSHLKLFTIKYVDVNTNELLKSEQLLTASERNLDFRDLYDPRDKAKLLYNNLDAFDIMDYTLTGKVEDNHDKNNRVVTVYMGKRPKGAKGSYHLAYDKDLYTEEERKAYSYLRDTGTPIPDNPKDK

[9] = system: Streptococcus; assay: GAS UMAA2166 growth inhibition – luminescence, BacTiterGlo, counter-screen for streptokinase expression inhibitor project, dose response (AID 1915); assay type: functional, organism-based;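 further: potency for reduction of bacterial viability or growth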
[10] = system: INS1; assay: INS-1E survival protection against cytokine death – cell-based, luminescence, retest, dose response (AID 449756); assay type: functional; details: Rattus norvegicus;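 further: cell death triggered by IL-1 beta plus TNF-alpha plus IFN-gamma mixture; protective hits raise ATP signal compared with cytokine alone wells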
[11] = target: Disintegrin and metalloproteinase domain-containing protein 17 (Homo sapiens, UniProt P78536); assay: inhibition of ADAM17 substrate cleavage – biochemical, quenched FRET substrate, counter-screen for ADAM10 exosite inhibitor project, dose response (AID 743253)
Sequence of Disintegrin and metalloproteinase domain-containing protein 17 (P78536 whole entry, the tested form may be a part): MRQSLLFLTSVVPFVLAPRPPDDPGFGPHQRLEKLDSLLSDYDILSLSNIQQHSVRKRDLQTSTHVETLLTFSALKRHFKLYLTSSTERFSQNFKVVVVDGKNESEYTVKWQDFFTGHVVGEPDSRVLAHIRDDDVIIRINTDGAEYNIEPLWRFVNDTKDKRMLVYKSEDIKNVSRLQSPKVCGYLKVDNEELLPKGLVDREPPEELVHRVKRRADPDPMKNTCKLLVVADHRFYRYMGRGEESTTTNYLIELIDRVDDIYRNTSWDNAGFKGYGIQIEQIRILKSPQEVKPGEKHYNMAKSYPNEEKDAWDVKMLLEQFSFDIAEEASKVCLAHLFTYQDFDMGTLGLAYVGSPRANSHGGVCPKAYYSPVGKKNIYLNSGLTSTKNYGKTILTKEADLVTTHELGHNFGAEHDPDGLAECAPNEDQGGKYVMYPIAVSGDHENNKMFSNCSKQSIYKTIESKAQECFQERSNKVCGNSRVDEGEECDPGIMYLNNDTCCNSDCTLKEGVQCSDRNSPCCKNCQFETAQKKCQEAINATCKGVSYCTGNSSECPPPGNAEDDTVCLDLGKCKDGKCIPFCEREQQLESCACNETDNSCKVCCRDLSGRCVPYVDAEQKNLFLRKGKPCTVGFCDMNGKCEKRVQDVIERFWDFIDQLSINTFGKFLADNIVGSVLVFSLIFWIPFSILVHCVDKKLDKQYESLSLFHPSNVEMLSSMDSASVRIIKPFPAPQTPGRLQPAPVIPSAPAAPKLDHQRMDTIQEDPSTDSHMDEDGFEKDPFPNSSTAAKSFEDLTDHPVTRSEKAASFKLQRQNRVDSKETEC

[12] = target: T2, Oxysterols receptor LXR-beta (Homo sapiens, UniProt P55055); assay type: functional, cell-based;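 further: Cell-based luminescence dose-response assay of agonist activity at LXR, run as a confirmatory counterscreen to a daf-12 agonist screen; HEK293 cells with Gal4-LXR fusion and GAL4-driven luciferase reporter; agonist potency from rising luciferase signal of a Gal4-LXR reporter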
T2 sequence (P55055 whole entry): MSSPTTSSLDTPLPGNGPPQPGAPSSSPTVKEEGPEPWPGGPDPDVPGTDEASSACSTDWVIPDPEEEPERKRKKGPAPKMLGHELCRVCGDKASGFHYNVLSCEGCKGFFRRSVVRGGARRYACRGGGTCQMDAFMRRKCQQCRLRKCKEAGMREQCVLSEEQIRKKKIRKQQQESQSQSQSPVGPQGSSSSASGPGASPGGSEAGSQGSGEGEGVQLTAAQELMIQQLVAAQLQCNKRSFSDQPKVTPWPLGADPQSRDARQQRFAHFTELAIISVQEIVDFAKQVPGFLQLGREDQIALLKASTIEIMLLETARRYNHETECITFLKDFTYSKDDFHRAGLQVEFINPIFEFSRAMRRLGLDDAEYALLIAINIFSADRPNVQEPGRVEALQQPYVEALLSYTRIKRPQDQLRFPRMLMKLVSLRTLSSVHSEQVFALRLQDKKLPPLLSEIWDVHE

[13] = cells
[14] = target: Peroxisome proliferator-activated receptor gamma/Nuclear receptor coactivator 1 (Homo sapiens, UniProt P37231); assay: (§1) TR-FRET dose response biochemical High Throughput Screening assay for agonists of the steroid receptor coactivator 1 (SRC-1) recruitment by the peroxisome proliferator-activated receptor gamma (PPAR gamma): non-selective agonists. [Related pubchem assays (depositor defined):AID1300, AID1808, AID504735, AID631]; assay type: protein assay
Sequence of Peroxisome proliferator-activated receptor gamma/Nuclear receptor coactivator 1 (P37231 whole entry): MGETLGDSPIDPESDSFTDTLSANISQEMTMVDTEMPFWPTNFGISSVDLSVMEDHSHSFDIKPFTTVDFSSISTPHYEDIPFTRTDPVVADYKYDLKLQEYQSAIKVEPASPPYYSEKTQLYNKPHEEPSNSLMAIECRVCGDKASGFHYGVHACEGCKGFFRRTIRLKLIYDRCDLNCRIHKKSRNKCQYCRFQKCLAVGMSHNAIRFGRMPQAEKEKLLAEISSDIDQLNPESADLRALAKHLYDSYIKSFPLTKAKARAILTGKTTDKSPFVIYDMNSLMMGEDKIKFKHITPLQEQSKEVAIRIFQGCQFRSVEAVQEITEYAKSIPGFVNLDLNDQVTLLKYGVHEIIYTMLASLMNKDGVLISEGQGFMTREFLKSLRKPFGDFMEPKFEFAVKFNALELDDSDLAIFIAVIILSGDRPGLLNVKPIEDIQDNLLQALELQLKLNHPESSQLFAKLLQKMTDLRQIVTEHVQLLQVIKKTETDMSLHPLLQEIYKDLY
Sequence of Peroxisome proliferator-activated receptor gamma/Nuclear receptor coactivator 1 (Q15788 whole entry, further chain): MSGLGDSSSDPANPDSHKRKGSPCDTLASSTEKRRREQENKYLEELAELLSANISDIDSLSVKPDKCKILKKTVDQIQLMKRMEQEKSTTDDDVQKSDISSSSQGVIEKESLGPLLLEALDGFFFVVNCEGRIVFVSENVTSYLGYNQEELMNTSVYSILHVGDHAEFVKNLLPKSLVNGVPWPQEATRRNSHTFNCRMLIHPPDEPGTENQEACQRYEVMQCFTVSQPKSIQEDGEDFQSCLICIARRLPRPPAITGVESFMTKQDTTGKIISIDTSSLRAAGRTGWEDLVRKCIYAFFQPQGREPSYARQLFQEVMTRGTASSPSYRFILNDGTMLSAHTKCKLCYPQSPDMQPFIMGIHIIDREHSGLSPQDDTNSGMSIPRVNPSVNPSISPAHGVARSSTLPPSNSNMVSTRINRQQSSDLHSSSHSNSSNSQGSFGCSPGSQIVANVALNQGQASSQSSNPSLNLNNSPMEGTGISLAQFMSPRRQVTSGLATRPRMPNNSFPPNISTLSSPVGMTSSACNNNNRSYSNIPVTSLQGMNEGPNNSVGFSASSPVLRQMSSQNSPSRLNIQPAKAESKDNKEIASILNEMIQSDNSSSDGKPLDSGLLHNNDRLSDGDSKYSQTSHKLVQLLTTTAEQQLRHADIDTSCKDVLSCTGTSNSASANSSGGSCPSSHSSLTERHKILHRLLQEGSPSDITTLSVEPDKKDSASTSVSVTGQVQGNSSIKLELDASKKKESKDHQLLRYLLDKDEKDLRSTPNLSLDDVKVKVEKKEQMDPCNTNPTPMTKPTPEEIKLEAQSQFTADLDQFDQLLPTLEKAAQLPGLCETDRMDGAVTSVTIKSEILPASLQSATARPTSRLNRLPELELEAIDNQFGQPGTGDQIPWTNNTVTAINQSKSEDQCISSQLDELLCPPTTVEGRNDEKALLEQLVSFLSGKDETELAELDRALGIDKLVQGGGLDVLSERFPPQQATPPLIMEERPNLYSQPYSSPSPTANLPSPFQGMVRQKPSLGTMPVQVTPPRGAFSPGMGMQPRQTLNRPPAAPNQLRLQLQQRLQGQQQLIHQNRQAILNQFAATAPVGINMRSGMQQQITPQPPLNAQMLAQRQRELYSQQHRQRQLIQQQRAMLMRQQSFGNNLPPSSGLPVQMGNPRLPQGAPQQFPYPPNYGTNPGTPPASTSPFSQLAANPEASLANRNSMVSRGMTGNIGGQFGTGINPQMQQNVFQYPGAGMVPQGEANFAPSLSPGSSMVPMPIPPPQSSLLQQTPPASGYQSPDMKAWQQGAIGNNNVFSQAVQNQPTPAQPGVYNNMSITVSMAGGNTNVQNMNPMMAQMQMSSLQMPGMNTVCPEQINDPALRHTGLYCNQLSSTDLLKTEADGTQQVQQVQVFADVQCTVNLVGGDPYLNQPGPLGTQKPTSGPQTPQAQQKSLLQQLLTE

[15] = target: Peroxisome proliferator-activated receptor gamma/Nuclear receptor coactivator 3 (Homo sapiens, UniProt P37231); assay: as §1, with “3 (SRC-3)” for “1 (SRC-1)”, “assays: 1301 (Confirmation screen.), 1048 (Primary screen.)]” for “assays (depositor defined):AID1300, AID1808, AID504735, AID631]”; assay type: functional
[16] = target: Peroxisome proliferator-activated receptor gamma/Nuclear receptor coactivator 2 (Homo sapiens, UniProt P37231); assay: TR-FRET dose response biochemical High Throughput Screening assay for agonists of the steroid receptor coactivator 2 (SRC-2) recruitment by the peroxisome proliferator-activated receptor gamma (PPAR gamma): non-selective agonists. [Related pubchem assays: 1297, 1032 ]; assay type: functional
[17] = target: Nonstructural protein 1 (Influenza A virus, UniProt Q194T2); assay type: functional, Influenza A virus (A/California/07/2009(H1N1))
Sequence of Nonstructural protein 1 (Q194T2 whole entry): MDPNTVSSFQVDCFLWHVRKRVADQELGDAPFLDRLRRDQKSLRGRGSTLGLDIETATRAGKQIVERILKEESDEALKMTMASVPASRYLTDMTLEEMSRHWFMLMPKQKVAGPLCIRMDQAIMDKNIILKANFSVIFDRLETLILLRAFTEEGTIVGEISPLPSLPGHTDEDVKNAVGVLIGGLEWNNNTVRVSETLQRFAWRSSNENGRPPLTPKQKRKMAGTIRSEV

[18] = target: T3, Polyadenylate-binding protein 1 (Homo sapiens, UniProt P11940); assay: MLLE binding blockers, Cy5 peptide tracer – biochemical, fluorescence polarization, Cy5-PAM2 peptide, secondary, miRNA deadenylation inhibitor project, dose response (AID 602260); assay type: functional; details: read-out: IC50_Mean
T3 sequence (P11940 whole entry, the tested form may be a part): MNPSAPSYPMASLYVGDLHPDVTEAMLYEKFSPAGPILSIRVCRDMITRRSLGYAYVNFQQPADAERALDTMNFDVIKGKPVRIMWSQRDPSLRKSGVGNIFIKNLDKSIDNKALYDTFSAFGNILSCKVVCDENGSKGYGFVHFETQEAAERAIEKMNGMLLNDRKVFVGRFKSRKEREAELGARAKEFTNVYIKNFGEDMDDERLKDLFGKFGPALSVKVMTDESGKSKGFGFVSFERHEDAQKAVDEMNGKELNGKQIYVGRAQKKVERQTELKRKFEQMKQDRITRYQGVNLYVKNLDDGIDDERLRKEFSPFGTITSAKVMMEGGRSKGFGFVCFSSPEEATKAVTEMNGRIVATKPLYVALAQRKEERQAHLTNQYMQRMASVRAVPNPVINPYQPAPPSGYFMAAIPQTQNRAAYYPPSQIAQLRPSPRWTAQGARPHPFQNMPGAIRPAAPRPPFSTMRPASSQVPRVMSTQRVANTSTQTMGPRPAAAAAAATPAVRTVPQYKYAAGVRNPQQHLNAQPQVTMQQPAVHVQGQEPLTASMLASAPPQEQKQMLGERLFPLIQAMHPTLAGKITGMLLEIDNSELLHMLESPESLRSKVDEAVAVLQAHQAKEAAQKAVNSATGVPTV

[19] = target: T3, Polyadenylate-binding protein 1; assay: MLLE domain peptide-binding blockers, IC50 – biochemical, fluorescence polarization, FITC-PAM2 peptide, dose response (AID 602259); assay type: functional; details: read-out: IC50_Mean
[20] = target: T4, Fibrinogen beta chain (Homo sapiens, UniProt P02675); assay: Fluorescence polarization-based biochemical high throughput dose response assay to identify inhibitors that disrupt the binding of a cyclic peptide (Tn6) to the fibrin proteolytic product D-Dimer and fragment E complex [DD(E )].
T4 sequence (P02675 whole entry, the tested form may be a part): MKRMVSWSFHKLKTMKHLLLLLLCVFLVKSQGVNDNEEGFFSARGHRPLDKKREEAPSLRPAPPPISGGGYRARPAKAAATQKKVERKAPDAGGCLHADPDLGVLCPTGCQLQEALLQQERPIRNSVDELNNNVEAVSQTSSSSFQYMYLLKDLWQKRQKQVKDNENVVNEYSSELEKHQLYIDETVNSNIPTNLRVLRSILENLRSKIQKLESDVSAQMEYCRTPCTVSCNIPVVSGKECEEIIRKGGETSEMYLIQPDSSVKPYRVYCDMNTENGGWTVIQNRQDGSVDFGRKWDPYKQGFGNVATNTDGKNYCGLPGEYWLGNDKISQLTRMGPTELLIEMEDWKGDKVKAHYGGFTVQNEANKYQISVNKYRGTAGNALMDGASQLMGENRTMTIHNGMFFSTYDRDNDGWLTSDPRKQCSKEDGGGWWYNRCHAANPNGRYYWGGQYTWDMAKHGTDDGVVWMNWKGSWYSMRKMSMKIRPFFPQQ

[21] = target: T4, Fibrinogen beta chain; assay: Fluorescence polarization-based biochemical high throughput dose response assay to identify inhibitors that disrupt the binding of a cyclic peptide (Tn7) to the fibrin proteolytic product D-Dimer and fragment E complex [DD(E )].
[22] = cells; remark: listed apart in the source
[23] = target: T5, Methionyl-tRNA synthetase, putative (Trypanosoma brucei brucei, UniProt Q38C91); assay type: functional, Trypanosoma brucei brucei strain 927/4 GUTat10.1
T5 sequence (Q38C91 whole entry): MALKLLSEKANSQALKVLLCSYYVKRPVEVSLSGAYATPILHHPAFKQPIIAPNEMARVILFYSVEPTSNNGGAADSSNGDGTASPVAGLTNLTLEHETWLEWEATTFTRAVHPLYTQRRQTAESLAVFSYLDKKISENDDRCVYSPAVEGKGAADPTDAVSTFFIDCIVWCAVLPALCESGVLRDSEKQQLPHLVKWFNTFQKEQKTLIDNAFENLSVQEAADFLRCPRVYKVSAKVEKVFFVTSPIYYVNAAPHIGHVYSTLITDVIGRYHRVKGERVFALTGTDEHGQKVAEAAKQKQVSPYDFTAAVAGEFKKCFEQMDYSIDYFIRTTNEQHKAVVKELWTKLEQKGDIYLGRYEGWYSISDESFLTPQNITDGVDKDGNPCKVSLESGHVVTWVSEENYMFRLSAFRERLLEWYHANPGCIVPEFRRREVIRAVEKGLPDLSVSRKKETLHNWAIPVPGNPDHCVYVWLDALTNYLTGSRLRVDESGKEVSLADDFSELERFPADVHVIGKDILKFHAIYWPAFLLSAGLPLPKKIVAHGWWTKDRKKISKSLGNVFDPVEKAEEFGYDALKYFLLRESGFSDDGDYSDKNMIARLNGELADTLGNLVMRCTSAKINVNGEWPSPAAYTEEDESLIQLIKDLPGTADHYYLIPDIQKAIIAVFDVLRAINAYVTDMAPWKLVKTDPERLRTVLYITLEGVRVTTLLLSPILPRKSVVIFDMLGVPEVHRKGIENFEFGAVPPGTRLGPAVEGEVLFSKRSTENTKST

[24] = Counterscreen for inhibitors of Trypanosoma brucei methionyl tRNA synthetase (MetRS): Luminescence-based cell-based high throughput dose response assay to identify compounds that are cytotoxic to Jurkat human T lymphocyte cells.; assay type: functional
[25] = target: T5, Methionyl-tRNA synthetase, putative; assay type: functional, Trypanosoma brucei brucei strain 927/4 GUTat10.1; remark: listed apart in the source
[26] = Late stage counterscreen for inhibitors of Trypanosoma brucei methionyl tRNA synthetase (MetRS): Luminescence-based cell-based high throughput dose response assay to identify compounds that are cytotoxic to Jurkat human T lymphocyte cells.; assay type: functional

In the case of `CN(c1ccccc1)S(=O)(=O)c1cccc(NC(=O)CSc2nncs2)c1`, the AC50 [1] was 1.44 µM (active), the AC50 [2] was 15.8 µM (active) and the AC50 [3] was 2.6 µM (active). The AC50 [4] was 4.3 µM (active).

For `CCOC(=O)CNC(=O)CSc1ncnc2c1cnn2-c1ccc(OC)cc1`, the AC50 [5] was 34.4 µM (active) and the AC50 [6] was 34.4 µM (active).

With `O=C(NNc1ccccc1Br)C(O)(c1cccc(C(F)(F)F)c1)c1cccc(C(F)(F)F)c1` the EC50 [7] was 3.48 µM (active), the EC50 [8] was 2.13 µM (active) and the EC50 [9] was 9.39 µM (active). The AC50 [10] was 6.89 µM (active) and the IC50 [11] was > 69.5 µM (inactive).

With `CSc1ccccc1-c1nnc(-c2ccccc2)o1` the EC50 [12] was > 67.5 µM (inactive) and the EC50 [13] was > 67.5 µM (inactive).

In the case of `Cc1cc2cc(CNS(=O)(=O)c3ccc4ccccc4c3)ccc2n1C`, the EC50 [14] was 6.2 µM (active), the EC50 [15] was 14.4 µM (not active) and the EC50 [16] was 6.29 µM (active). For the same compound, the IC50 [17] was 46.8 µM (active), the IC50 [18] was > 66 µM (inactive) and the IC50 [19] was 46.5 µM (inactive). For the same compound, the IC50 [20] was 21 µM (inactive) and the IC50 [21] was > 83.3 µM (inactive).

With `C#CCOc1ccc(C2C(C#N)=C(N)Oc3cc(O)ccc32)cc1` (stereo unspecified) the AC50 [22] was 3.61 µM (active).

In the case of `O=C(NCc1nc2ccccc2[nH]1)C1=C[C@@H](c2csc3ccccc23)C[C@@H](OCCCCO)O1`, the IC50 [23] was 1.91 µM (active), the IC50 [24] was 80.2 µM (inactive) and the IC50 [25] was 1.36 µM (active). For the same compound, the IC50 [26] was 64.4 µM (inactive).
